From ChEMBL document CHEMBL1201862, “PubChem BioAssay data set” (2004)
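Growth conditions: 96-well plates. Treatment: test compound, 48 hours, 5 concentrations. Analysis: linear interpolation between bracketing concentrations; unreached endpoints set to highest concentration. GI50 = concentration required for 50% inhibition of growth.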 Active and inactive are the calls of the source. Rule as the data show it: active = GI50 up to about 1.1 µM and inactive = higher.

What was measured:
Experiment in all cases: growth of human tumour cells (NCI), 48 h
[1] = tested on: 786-0
[2] = tested on: A498
[3] = tested on: A549
[4] = tested on: ACHN
[5] = tested on: CAKI-1
[6] = tested on: CCRF-CEM
[7] = tested on: COLO 205
[8] = tested on: DU-145
[9] = tested on: EKVX
[10] = tested on: HCC 2998
[11] = tested on: HCT-116
[12] = tested on: HCT-15
[13] = tested on: HL-60
[14] = tested on: HOP-62
[15] = tested on: HOP-92
[16] = tested on: HT-29
[17] = tested on: Hs-578T
[18] = tested on: IGROV-1
[19] = tested on: K562
[20] = tested on: KM12
[21] = tested on: LOX IMVI
[22] = tested on: M14
[23] = tested on: MCF7
[24] = tested on: MDA-MB-231
[25] = tested on: MDA-MB-435
[26] = tested on: MDA-N
[27] = tested on: MOLT-4
[28] = tested on: Malme-3M
[29] = tested on: NCI-H226
[30] = tested on: NCI-H23
[31] = tested on: NCI-H460
[32] = tested on: NCI-H522
[33] = tested on: NCI/ADR-RES
[34] = tested on: OVCAR-3
[35] = tested on: OVCAR-4
[36] = tested on: OVCAR-5
[37] = tested on: OVCAR-8
[38] = tested on: PC-3
[39] = tested on: RPMI-8226
[40] = tested on: RXF 393
[41] = tested on: SF-268
[42] = tested on: SF-295
[43] = tested on: SF-539
[44] = tested on: SK-MEL-28
[45] = tested on: SK-MEL-2
[46] = tested on: SK-MEL-5
[47] = tested on: SK-OV-3
[48] = tested on: SN12C
[49] = tested on: SNB-19
[50] = tested on: SR
[51] = tested on: SW-620
[52] = tested on: TK-10
[53] = tested on: U-251
[54] = tested on: UACC-257
[55] = tested on: UACC-62
[56] = tested on: UO-31
[57] = tested on: SNB-75
[58] = tested on: T47D

With `O=c1[nH]n(Cc2ccccc2)c2ccc([N+](=O)[O-])cc12` the GI50 [1] was 82.4 µM (inactive), the GI50 [2] was 47.3 µM (inactive) and the GI50 [3] was 61 µM (inactive). For the same molecule, the GI50 [4] was > 100 µM (inactive), the GI50 [5] was 59.2 µM (inactive) and the GI50 [6] was 55.2 µM (inactive). The GI50 [7] was > 100 µM (inactive), the GI50 [8] was > 100 µM (inactive) and the GI50 [9] was > 100 µM (inactive). The GI50 [10] was 36.3 µM (inactive), the GI50 [11] was 49.4 µM (inactive) and the GI50 [12] was 56.1 µM. The GI50 [13] was 33.8 µM (inactive), the GI50 [14] was > 100 µM (inactive) and the GI50 [15] was 55.8 µM (inactive). The GI50 [16] was 41.2 µM (inactive), the GI50 [17] was 35.2 µM (inactive) and the GI50 [18] was 84.3 µM (inactive). The GI50 [19] was 28.8 µM (inactive), the GI50 [20] was 64.4 µM (inactive) and the GI50 [21] was 88.7 µM (inactive). The GI50 [22] was 46.2 µM (inactive), the GI50 [23] was 28.2 µM (inactive) and the GI50 [24] was 28.7 µM (inactive). The GI50 [25] was 19.9 µM (inactive), the GI50 [26] was 29.2 µM (inactive) and the GI50 [27] was 34.7 µM (inactive). For the same molecule, the GI50 [28] was 44.5 µM (inactive), the GI50 [29] was > 100 µM (inactive) and the GI50 [30] was 56.5 µM (inactive). For the same molecule, the GI50 [31] was 40.6 µM (inactive), the GI50 [32] was 65.5 µM (inactive) and the GI50 [33] was 34.8 µM (inactive). The GI50 [34] was > 100 µM (inactive), the GI50 [35] was > 100 µM (inactive) and the GI50 [36] was > 100 µM (inactive). For the same molecule, the GI50 [37] was > 100 µM (inactive), the GI50 [38] was 37.2 µM (inactive) and the GI50 [39] was 48.5 µM (inactive). The GI50 [40] was 71.9 µM (inactive), the GI50 [41] was > 100 µM (inactive) and the GI50 [42] was 66.8 µM (inactive). For the same molecule, the GI50 [43] was 87.1 µM (inactive), the GI50 [44] was 57.9 µM (inactive) and the GI50 [45] was 47.8 µM (inactive). For the same molecule, the GI50 [46] was 46.9 µM (inactive), the GI50 [47] was 15.7 µM (inactive) and the GI50 [48] was 49.5 µM (inactive). For the same molecule, the GI50 [49] was > 100 µM (inactive), the GI50 [50] was 69.7 µM (inactive) and the GI50 [51] was 48.9 µM (inactive). The GI50 [52] was > 100 µM (inactive), the GI50 [53] was 49.8 µM (inactive) and the GI50 [54] was 60.8 µM (inactive). For the same molecule, the GI50 [55] was > 100 µM (inactive) and the GI50 [56] was 45.5 µM (inactive).

With `Cn1c2ccccc2c(=O)c2ccc(Cl)cc21` the GI50 [1] was > 10 µM (inactive), the GI50 [3] was 6.01 µM (inactive) and the GI50 [6] was > 10 µM (inactive). The GI50 [7] was > 10 µM (inactive), the GI50 [9] was 1.38 µM (inactive) and the GI50 [10] was > 10 µM (inactive). For the same molecule, the GI50 [11] was > 10 µM (inactive), the GI50 [12] was > 10 µM and the GI50 [13] was 9.95 µM (inactive). The GI50 [14] was > 10 µM (inactive), the GI50 [15] was > 10 µM (inactive) and the GI50 [16] was > 10 µM (inactive). For the same molecule, the GI50 [18] was > 10 µM (inactive), the GI50 [19] was > 10 µM (inactive) and the GI50 [20] was > 10 µM (inactive). For the same molecule, the GI50 [21] was > 10 µM (inactive), the GI50 [23] was > 10 µM (inactive) and the GI50 [25] was > 10 µM (inactive). The GI50 [26] was > 10 µM (inactive), the GI50 [27] was > 10 µM (inactive) and the GI50 [28] was > 10 µM (inactive). The GI50 [30] was > 10 µM (inactive), the GI50 [34] was > 10 µM (inactive) and the GI50 [35] was > 10 µM (inactive). For the same molecule, the GI50 [37] was > 10 µM (inactive), the GI50 [38] was > 10 µM (inactive) and the GI50 [39] was > 10 µM (inactive). The GI50 [40] was > 10 µM (inactive), the GI50 [41] was > 10 µM (inactive) and the GI50 [42] was > 10 µM (inactive). The GI50 [43] was 2.51 µM (inactive), the GI50 [44] was > 10 µM (inactive) and the GI50 [45] was > 10 µM (inactive). The GI50 [46] was > 10 µM (inactive), the GI50 [47] was 6.71 µM (inactive) and the GI50 [48] was > 10 µM (inactive). The GI50 [49] was 0.0676 µM (active), the GI50 [57] was 8.97 µM (inactive) and the GI50 [50] was > 10 µM (inactive). The GI50 [51] was > 10 µM (inactive), the GI50 [58] was > 10 µM (inactive) and the GI50 [52] was 7.5 µM (inactive). The GI50 [55] was > 10 µM (inactive).

In the case of `C/C=C1\CC2C(=O)CCC2C2c3ccccc3OC12` (centres undefined), the GI50 [1] is reported as > 100 µM (inactive), the GI50 [3] is reported as > 100 µM (inactive) and the GI50 [4] is reported as > 100 µM (inactive). The GI50 [5] was > 100 µM (inactive), the GI50 [6] was > 100 µM (inactive) and the GI50 [7] was > 100 µM (inactive). For the same molecule, the GI50 [8] was 0.0617 µM (active), the GI50 [9] was > 100 µM (inactive) and the GI50 [11] was > 100 µM (inactive). For the same molecule, the GI50 [12] was > 100 µM, the GI50 [13] was 87.7 µM (inactive) and the GI50 [14] was > 100 µM (inactive). For the same molecule, the GI50 [15] was > 100 µM (inactive), the GI50 [16] was > 100 µM (inactive) and the GI50 [17] was > 100 µM (inactive). For the same molecule, the GI50 [18] was > 100 µM (inactive), the GI50 [19] was > 100 µM (inactive) and the GI50 [20] was > 100 µM (inactive). The GI50 [21] was > 100 µM (inactive), the GI50 [22] was > 100 µM (inactive) and the GI50 [23] was > 100 µM (inactive). The GI50 [24] was > 100 µM (inactive), the GI50 [25] was > 100 µM (inactive) and the GI50 [26] was 0.0718 µM (active). The GI50 [27] was > 100 µM (inactive), the GI50 [28] was > 100 µM (inactive) and the GI50 [29] was > 100 µM (inactive). For the same molecule, the GI50 [30] was > 100 µM (inactive), the GI50 [31] was > 100 µM (inactive) and the GI50 [32] was > 100 µM (inactive). For the same molecule, the GI50 [33] was > 100 µM (inactive), the GI50 [34] was > 100 µM (inactive) and the GI50 [35] was > 100 µM (inactive). For the same molecule, the GI50 [36] was > 100 µM (inactive), the GI50 [37] was > 100 µM (inactive) and the GI50 [38] was > 100 µM (inactive). The GI50 [39] was > 100 µM (inactive), the GI50 [40] was > 100 µM (inactive) and the GI50 [41] was > 100 µM (inactive). For the same molecule, the GI50 [42] was > 100 µM (inactive), the GI50 [43] was > 100 µM (inactive) and the GI50 [44] was > 100 µM (inactive). For the same molecule, the GI50 [45] was > 100 µM (inactive), the GI50 [46] was > 100 µM (inactive) and the GI50 [47] was > 100 µM (inactive). The GI50 [48] was < 0.01 µM (active), the GI50 [49] was > 100 µM (inactive) and the GI50 [57] was > 100 µM (inactive). The GI50 [50] was > 100 µM (inactive), the GI50 [51] was > 100 µM (inactive) and the GI50 [52] was > 100 µM (inactive). The GI50 [53] was > 100 µM (inactive), the GI50 [54] was > 100 µM (inactive) and the GI50 [55] was > 100 µM (inactive). For the same molecule, the GI50 [56] was > 100 µM (inactive).
